Where two headings read alike, the source gives them in different places.
Legend:
AsPC-1 (K-Ras G12D) [1] = experiment: Potency assay: pERK in AsPC-1 cells; type: cell-based; conditions: Homo sapiens
AsPC-1 (K-Ras G12D) [2] = experiment: CellTiter-Glo cell viability assay, AsPC-1; type: cell-based; conditions: Homo sapiens, ASPC1, 120 h
In short: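 Cells already in plates received compound by direct dispensing. After incubation to day 5, plates sat at room temperature roughly 30 minutes, then ATP-based luminescence was measured and values derived from a four-parameter fit of DMSO-normalized data.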

[3] = ASPC1, read-out: pERK EC50 (AsPC-1 KRAS G12D)
[4] = read-out: AsPC-1 Cell Viability IC50, AsPC-1, K-Ras G12D, 5-day treatment
[5] = ASPC1, AsPC-1 cells, K-Ras G12D, read-out: pERK EC50 (AsPC-1 KRAS G12D)
[6] = AsPC-1, K-Ras G12D, 5-day treatment, read-out: AsPC-1 Cell Viability IC50

Compound	EC50 (AsPC-1 (K-Ras G12D) [1]; [3])	IC50 (AsPC-1 (K-Ras G12D) [2]; [4])	EC50 (AsPC-1 (K-Ras G12D) [1]; [5])	IC50 (AsPC-1 (K-Ras G12D) [2]; [6])
CCn1c(-c2cccnc2[C@H](C)OC)c2c3cc(ccc31)-c1cc(O)cc(c1)C[C@H](NC(=O)[C@H](C(C)C)N(C)C(=O)CN(C)C(=O)[C@@H]1CN1CC(=O)N(C)C)C(=O)N1CCC[C@H](N1)C(=O)OCC(C)(C)C2 (some centres unmarked) [Compound 271]	< 5 µM	> 10 µM		
CCn1c(-c2cccnc2[C@H](C)OC)c2c3cc(ccc31)-c1cc(O)cc(c1)C[C@H](NC(=O)[C@H](C(C)C)N(C)C(=O)CN(C)C(=O)[C@H]1CN1CCCN1CCOC1=O)C(=O)N1CCC[C@H](N1)C(=O)OCC(C)(C)C2 (some centres unmarked) [Compound 272]	< 5 µM	1 to 10 µM		
CCn1c(-c2cccnc2[C@H](C)OC)c2c3cc(ccc31)-c1cc(O)cc(c1)C[C@H](NC(=O)[C@H](C(C)C)N(C)C(=O)CN(C)C(=O)[C@H]1CN1C1COC1)C(=O)N1CCC[C@H](N1)C(=O)OCC(C)(C)C2 (some centres unmarked) [Compound 275]	< 5 µM	1 to 10 µM		
CCn1c(-c2cccnc2[C@H](C)OC)c2c3cc(ccc31)-c1cc(O)cc(c1)C[C@H](NC(=O)[C@H](C(C)C)N(C)C(=O)CN(C)C(=O)[C@@H]1CN1CC1COC1)C(=O)N1CCC[C@H](N1)C(=O)OCC(C)(C)C2 (some centres unmarked) [Compound 278]	< 5 µM	1 to 10 µM		
CCn1c(-c2cccnc2[C@H](C)OC)c2c3cc(ccc31)-c1cc(O)cc(c1)C[C@H](NC(=O)[C@H](C(C)C)N(C)C(=O)CN(C)C(=O)[C@@H]1N[C@@H]1C1COC1)C(=O)N1CCC[C@H](N1)C(=O)OCC(C)(C)C2 [Compound 281]	< 5 µM	0.1 to 1 µM		
CCn1c(-c2cccnc2[C@H](C)OC)c2c3cc(ccc31)-c1cc(O)cc(c1)C[C@H](NC(=O)[C@H](C(C)C)N(C)C(=O)CN(C)C(=O)[C@H]1N[C@H]1C1COC1)C(=O)N1CCC[C@H](N1)C(=O)OCC(C)(C)C2 [Compound 282]	< 5 µM	1 to 10 µM		
CCn1c(-c2cccnc2[C@H](C)OC)c2c3cc(ccc31)-c1cc(O)cc(c1)C[C@H](NC(=O)[C@H](C(C)C)N(C)C(=O)CN(C)C(=O)[C@H]1N[C@@H]1C1COC1)C(=O)N1CCC[C@H](N1)C(=O)OCC(C)(C)C2 [Compound 284]	< 5 µM	1 to 10 µM		
CCn1c(-c2cccnc2[C@H](C)OC)c2c3cc(ccc31)-c1cc(O)cc(c1)C[C@H](NC(=O)[C@H](C(C)C)N(C)C(=O)[C@H]1C[C@@H]3N[C@@H]3C1)C(=O)N1CCC[C@H](N1)C(=O)OCC(C)(C)C2 [Compound 286]			< 5 µM	1 to 10 µM
CCn1c(-c2cccnc2[C@H](C)OC)c2c3cc(ccc31)-c1csc(n1)C[C@H](NC(=O)[C@H](C(C)C)N(C)C(=O)N(C)[C@H]1CCCN(C(=O)[C@H]3CN3)C1)C(=O)N1CCC[C@H](N1)C(=O)OCC(C)(C)C2 [Compound 295]			< 5 µM	1 to 10 µM
CCn1c(-c2cccnc2[C@H](C)OC)c2c3cc(ccc31)-c1cc(O)cc(c1)C[C@H](NC(=O)[C@H](C(C)C)N1CC[C@]3(CCN(C(=O)[C@@H]4N[C@@H]4C4CC4)C3)C1=O)C(=O)N1CCC[C@H](N1)C(=O)OCC(C)(C)C2 [Compound 305]			< 5 µM	0.1 to 1 µM
CCN1C[C@@H]1C(=O)N(C)CC(=O)N(C)[C@H](C(=O)N[C@H]1Cc2cc(O)cc(c2)-c2ccc3c(c2)c(c(-c2cccnc2[C@H](C)OC)n3CC)CC(C)(C)COC(=O)[C@@H]2CCCN(N2)C1=O)C1CCCC1 (some centres unmarked) [Compound 309]			< 5 µM	0.01 to 0.1 µM
CCn1c(-c2cccnc2[C@H](C)OC)c2c3cc(ccc31)-c1csc(n1)C[C@H](NC(=O)[C@H](C(C)C)N(C)C(=O)N(C)[C@H]1CCN(C(=O)[C@@H]3CN3)C1)C(=O)N1CCC[C@H](N1)C(=O)OCC(C)(C)C2 [Compound 310]			< 5 µM	1 to 10 µM
CCn1c(-c2cccnc2[C@H](C)OC)c2c3cc(ccc31)-c1cc(O)cc(c1)C[C@H](NC(=O)[C@H](C(C)C)N(C)C(=O)[C@]1(F)CCN(C(=O)[C@H]3CN3)C1)C(=O)N1CCC[C@H](N1)C(=O)OCC(C)(C)C2 [Compound 311]			< 5 µM	0.1 to 1 µM

From patent publication US11739074B2, “Ras inhibitors” (Revolution Medicines, Inc., priority 2019, dated 2023)
